Measured values: US8552002B2 (Novartis AG, priority 2004, dated 2013)

How the values were obtained:
Format in all cases: biochemical
[1] = molecular target: T1, KDR (Homo sapiens, UniProt P35968); test: Inhibitory activity against KDR (VEGF-R2), in vitro data of Examples 170 and 207; settings: 10 μM; Examples 1 to 169; read-out: KDR inhibition at 10 μM
T1 construct: expressed in transfected cells; host or cells: CHO cells
Experimental: (Controls comprise medium without test compounds). After two hours of incubation at 37° C., recombinant VEGF is added; the final VEGF concentration is 20 ng/ml. After a further five minutes incubation at 37° C., the cells are washed twice with ice-cold PBS (phosphate-buffered saline) and immediately lysed in 100 μl lysis buffer per well. The lysates are then centrifuged to remove the cell nuclei, and the protein concentrations of the supernatants are determined using a commercial protein assay (BIORAD). The lysates can then either be immediately used or, if necessary, stored at −20° C. […] The plates are then washed and the remaining free protein-binding sites are saturated with 3% TopBlock® (Juro, Cat. # TB232010) in phosphate buffered saline with Tween 20® (polyoxyethylen(20)sorbitane monolaurate, ICI/Uniquema) (PBST). The cell lysates (20 μg protein per well) are then incubated in these plates overnight at 4° C. together with an antiphosphotyrosine antibody coupled with alkaline phosphatase (PY20:AP from Zymed). […] The luminescence is measured in a Packard Top Count Microplate Scintillation Counter.

[2] = molecular target: T2, FGFR3 (K650E) (Homo sapiens, UniProt P22607, K650E); test: Recombinant GST-FGFR-3-K650E tyrosine kinase assay (33P into poly(Glu,Tyr)); settings: 10 μM; Examples 1 to 169; read-out: FGFR3 (K650E) inhibition at 10 μM
T2 construct: amino acids 411-806 of the cytoplasmic domain of human FGFR-3, N-terminally fused to GST; made in house; host or cells: Sf9 insect cells (baculovirus)

[3] = molecular target: T3, Tek (Homo sapiens, UniProt Q02763); test: Recombinant GST-Tek (Tie-2) tyrosine kinase assay (33P into poly(Glu,Tyr)); settings: Examples 1 to 169
T3 construct: amino acids 773-1124 of the cytoplasmic kinase domain of human Tek, N-terminally fused to GST; made in house; host or cells: Sf9 insect cells (baculovirus)
Description: (Tie-2/Tek): The baculovirus donor vector pFbacG01 was used to generate a recombinant baculovirus that expressed the amino acid region amino acids 773-1124 of the cytoplasmic kinase domain of human Tek, N-terminally fused to GST (Provided by Dr. Marmé, Institute of Molecular Medicine, Freiburg, Germany based on a Research Collaboration). Tek was recloned into the pFbacG01 transfer vector by EcoRI excision and ligation into EcoRI digested pFbacG01 (FBG-Tie2/Tek).
Production of virus: Transfer vectors containing the kinase domains were transfected into the DH10Bac cell line (GIBCO) and plated on selective agar plates. Colonies without insertion of the fusion sequence into the viral genome (carried by the bacteria) are blue. Single white colonies were picked and viral DNA (bacmid) isolated from the bacteria by standard plasmid purification procedures. Sf9 cells or Sf21 cells were then transfected in 25 cm^2 flasks with the viral DNA using Cellfectin reagent.
Determination of small scale protein expression in Sf9 cells: Virus containing media was collected from the transfected cell culture and used for infection to increase its titer. Virus containing media obtained after two rounds of infection was used for large-scale protein expression. For large-scale protein expression 100 cm^2 round tissue culture plates were seeded with 5×10^7 cells/plate and infected with 1 mL of virus-containing media (approx. 5 MOIs). After 3 days the cells were scraped off the plate and centrifuged at 500 rpm for 5 min. Cell pellets from 10-20, 100 cm^2 plates, were resuspended in 50 mL of ice-cold lysis buffer (25 mMTris-HCl, pH7.5, 2 mMEDTA, 1% NP-40, 1 mM DTT, 1 mMP MSF). The cells were stirred on ice for 15 min and then centrifuged at 5000 rpms for 20 min.
Purification of GST-tagged proteins: The centrifuged cell lysate was loaded onto a 2 mL glutathione-sepharose column and washed three times with 10 mL of 25 mM Tris-HCl, pH 7.5, 2 mM EDTA, 1 mM DTT, 200 mM NaCl. The GST-tagged proteins were then eluted by 10 applications (1 mL each) of 25 mM Tris-HCl, pH 7.5, 10 mM reduced-glutathione, 100 mM NaCl, 1 mM DTT, 10% Glycerol and stored at −70° C.
Measure of enzyme activity: Tyrosine protein kinase assays with either purified GST-Ret, GST-Tek or GST-FGFR-3-K650E were carried out in a final volume of 30 μL with final concentrations of the following components: Ret included 15 ng of GST-Ret, 20 mM Tris-HCl, pH 7.5, 1 mM MnCl2, 10 mM MgCl2, 1 mM DTT, 3 μg/mL poly(Glu,Tyr) 4:1, 1% DMSO and 2.0 μM ATP (γ-[^33P]-ATP 0.1 μCi). Tek included 150 ng of GST-Tek, 20 mM Tris-HCl, pH 7.5, 3 mM MnCl2, 3 mM MgCl2, 1 mM DTT, 0.01 mM Na3VO4, 250 μg/mL PEG 20'000, 10 μg/mL poly(Glu,Tyr) 4:1, 1% DMSO and 4.0 μM ATP (γ-[^33P]-ATP 0.1 μCi). FGFR-3-K650E included 10 ng of GST-FGFR-3-K650E, 20 mM Tris-HCl, pH 7.5, 3 mM MnCl2, 3 mM MgCl2, 1 mM DTT, […], 10 μg/mL poly(Glu,Tyr) 4:1, 1% DMSO and 4.0 μM ATP (γ-[^33P]-ATP 0.1 μCi).The activity was assayed in the presence or absence of inhibitors, by measuring the incorporation of ^33P from [γ^33P] ATP into poly(Glu,Tyr) 4:1. The assay was carried out in 96-well plates at ambient temperature for 30 min under conditions described below and terminated by the addition of 50 μL of 125 mM EDTA. Subsequently, 60 μL of the reaction mixture were transferred onto Immobilon-PVDF membrane (Millipore) previously soaked for 5 min with methanol, rinsed with water, then soaked for 5 min with 0.5% H3PO4 and mounted on vacuum manifold with disconnected vacuum source. After spotting all samples, vacuum was connected and each well rinsed with 200 μL 0.5% H3PO4. Membranes were removed and washed 4× on a shaker with 1.0% H3PO4, once with ethanol. Membranes were counted after drying at ambient temperature, mounting in Packard TopCount 96-well frame, and addition of 10 μL/well of Microscint™ (Packard). […]

T2 sequence (P22607 411-806 K650E): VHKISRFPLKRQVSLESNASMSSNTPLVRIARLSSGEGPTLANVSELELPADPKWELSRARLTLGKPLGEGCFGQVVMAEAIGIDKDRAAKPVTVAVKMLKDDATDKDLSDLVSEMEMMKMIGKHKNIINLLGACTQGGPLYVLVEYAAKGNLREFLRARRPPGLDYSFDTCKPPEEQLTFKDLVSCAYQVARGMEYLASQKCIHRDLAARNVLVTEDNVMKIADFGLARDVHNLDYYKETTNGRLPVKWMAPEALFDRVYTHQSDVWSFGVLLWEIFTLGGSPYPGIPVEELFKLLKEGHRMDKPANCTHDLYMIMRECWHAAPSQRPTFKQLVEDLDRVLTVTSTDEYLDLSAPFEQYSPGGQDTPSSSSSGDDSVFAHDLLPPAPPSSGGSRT
T3 sequence (Q02763 773-1124): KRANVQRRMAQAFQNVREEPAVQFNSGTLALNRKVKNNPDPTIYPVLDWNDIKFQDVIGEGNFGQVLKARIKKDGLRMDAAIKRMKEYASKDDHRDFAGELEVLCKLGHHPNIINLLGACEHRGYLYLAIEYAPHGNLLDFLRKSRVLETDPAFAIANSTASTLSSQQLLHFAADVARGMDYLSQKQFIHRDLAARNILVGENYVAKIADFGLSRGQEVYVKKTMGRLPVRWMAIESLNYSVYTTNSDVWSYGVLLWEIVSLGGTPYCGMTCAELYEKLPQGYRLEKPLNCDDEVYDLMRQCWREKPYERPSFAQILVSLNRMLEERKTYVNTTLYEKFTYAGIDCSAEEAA
T1 sequence (P35968 20-1356): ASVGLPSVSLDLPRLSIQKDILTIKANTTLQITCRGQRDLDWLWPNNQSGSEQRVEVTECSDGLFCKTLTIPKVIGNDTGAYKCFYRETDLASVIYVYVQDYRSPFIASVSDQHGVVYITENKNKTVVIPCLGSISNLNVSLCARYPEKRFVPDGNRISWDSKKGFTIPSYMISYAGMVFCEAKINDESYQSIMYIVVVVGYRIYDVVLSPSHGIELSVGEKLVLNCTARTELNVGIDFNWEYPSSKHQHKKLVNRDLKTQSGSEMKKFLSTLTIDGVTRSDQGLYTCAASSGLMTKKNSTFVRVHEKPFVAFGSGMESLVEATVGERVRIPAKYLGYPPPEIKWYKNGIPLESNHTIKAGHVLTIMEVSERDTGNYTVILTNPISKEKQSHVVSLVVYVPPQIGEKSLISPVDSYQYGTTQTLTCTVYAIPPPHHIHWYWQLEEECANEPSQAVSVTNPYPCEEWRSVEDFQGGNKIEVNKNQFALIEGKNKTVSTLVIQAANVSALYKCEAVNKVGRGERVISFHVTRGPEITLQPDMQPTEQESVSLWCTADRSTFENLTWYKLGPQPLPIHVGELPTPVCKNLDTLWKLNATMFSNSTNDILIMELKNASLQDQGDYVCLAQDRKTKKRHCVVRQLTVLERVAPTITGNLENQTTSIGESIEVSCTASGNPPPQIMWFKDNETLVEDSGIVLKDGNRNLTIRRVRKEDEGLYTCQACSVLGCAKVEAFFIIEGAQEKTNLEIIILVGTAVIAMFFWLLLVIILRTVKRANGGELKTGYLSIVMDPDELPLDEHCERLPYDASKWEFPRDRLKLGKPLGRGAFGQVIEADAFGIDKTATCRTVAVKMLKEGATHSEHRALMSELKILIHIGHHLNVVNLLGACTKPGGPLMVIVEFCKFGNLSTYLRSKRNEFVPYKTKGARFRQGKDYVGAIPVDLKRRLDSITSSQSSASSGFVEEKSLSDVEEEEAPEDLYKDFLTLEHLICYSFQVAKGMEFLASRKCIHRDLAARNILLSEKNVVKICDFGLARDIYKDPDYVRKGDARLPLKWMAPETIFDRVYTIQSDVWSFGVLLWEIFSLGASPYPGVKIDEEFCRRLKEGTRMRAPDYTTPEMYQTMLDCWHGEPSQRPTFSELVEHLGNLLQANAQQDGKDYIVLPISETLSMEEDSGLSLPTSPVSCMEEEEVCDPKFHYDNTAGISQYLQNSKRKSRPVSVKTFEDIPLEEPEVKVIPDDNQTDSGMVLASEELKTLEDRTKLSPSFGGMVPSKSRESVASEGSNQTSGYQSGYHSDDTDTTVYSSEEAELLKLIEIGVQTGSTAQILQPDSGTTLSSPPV

Structure (SMILES) | inhibition at 10 µM [1] [%] | inhibition at 10 µM [2] [%] | inhibition at 10 µM [3] [%]
COc1cc(NC(=O)Nc2cc(Nc3ccc(N4CCN(C)CC4)cc3)ncn2)ccc1F [Example 32, 1-(4-Fluoro-3-methoxy-phenyl)-3-{6-[4-(4-methyl-piperazin-1-yl)-phenyl-amino]-pyrimidin-4-yl}-urea] | 67 to 100 | 27 to 100 | 12 to 100
COc1cc(NC(=O)Nc2cc(Nc3cccc(N4CCN(C)CC4)c3)ncn2)ccc1F [Example 33, 1-(4-Fluoro-3-methoxy-phenyl)-3-{6-[3-(4-methyl-piperazin-1-yl)-phenyl-amino]-pyrimidin-4-yl}-urea] | 67 to 100 | 27 to 100 | 12 to 100
COc1cc(C)c(NC(=O)Nc2cc(Nc3ccc(N4CCN(C)CC4)cc3)ncn2)cc1OC [Example 34, 1-(4,5-Dimethoxy-2-methyl-phenyl)-3-{6-[4-(4-methyl-piperazin-1-yl)-phenyl-amino]-pyrimidin-4-yl}-urea] | 67 to 100 | 27 to 100 | 12 to 100
COc1cc(C)c(NC(=O)Nc2cc(Nc3cccc(N4CCN(C)CC4)c3)ncn2)cc1OC [Example 35] | 67 to 100 | 27 to 100 | 12 to 100
COc1ccc(Cl)c(NC(=O)Nc2cc(Nc3cccc(OCCN4CCOCC4)c3)ncn2)c1Cl [Example 37, 1-(2,6-Dichloro-3-methoxy-phenyl)-3-{6-[3-(2-morpholin-4-yl-ethoxy)-phenylamino]-pyrimidin-4-yl}-urea] | 67 to 100 | 27 to 100 | 12 to 100
CNc1cc(NC(=O)Nc2cc(OC)cc(OC)c2Cl)ncn1 [Example 38, 1-(2-Chloro-3,5-dimethoxy-phenyl)-3-(6-methylamino-pyrimidin-4-yl)-urea] | 67 to 100 | 27 to 100 | 12 to 100
COc1cc(NC(=O)Nc2cc(Nc3ccccc3)ncn2)c(Cl)c(OC)c1 [Example 39, 1-(2-Chloro-3,5-dimethoxy-phenyl)-3-(6-phenylamino-pyrimidin-4-yl)-urea] | 67 to 100 | 27 to 100 | 12 to 100
COc1cc(NC(=O)Nc2cc(Nc3cccc(N4CCN(C)CC4)c3)ncn2)c(Cl)c(OC)c1 [Example 41] | 67 to 100 | 27 to 100 | 12 to 100
CCN(CC)CCOc1ccc(Nc2cc(NC(=O)Nc3cc(OC)cc(OC)c3Cl)ncn2)cc1 [Example 42, 1-(2-Chloro-3,5-dimethoxy-phenyl)-3-{6-[4-(2-diethylamino-ethoxy)-phenylamino]-pyrimidin-4-yl}-urea] | 67 to 100 | 27 to 100 | 12 to 100
COc1cc(NC(=O)Nc2cc(Nc3cccc(OCCN(C)C)c3)ncn2)c(Cl)c(OC)c1 [Example 43, 1-(2-Chloro-3,5-dimethoxy-phenyl)-3-{6-[3-(2-dimethylamino-ethoxy)-phenylamino]-pyrimidin-4-yl}-urea] | 67 to 100 | 27 to 100 | 12 to 100
COc1cc(NC(=O)Nc2cc(Nc3ccc(OCCN4CCOCC4)cc3)ncn2)c(Cl)c(OC)c1 [Example 44, 1-(2-Chloro-3,5-dimethoxy-phenyl)-3-{6-[4-(2-morpholin-4-yl-ethoxy)-phenylamino]-pyrimidin-4-yl}-urea] | 67 to 100 | 27 to 100 | 12 to 100
COc1cc(NC(=O)Nc2cc(Nc3cccc(OCCN4CCOCC4)c3)ncn2)c(Cl)c(OC)c1 [Example 45, 1-(2-Chloro-3,5-dimethoxy-phenyl)-3-{6-[3-(2-morpholin-4-yl-ethoxy)-phenylamino]-pyrimidin-4-yl}-urea] | 67 to 100 | 27 to 100 | 12 to 100
CCN(C(=O)Nc1cccc(OC)c1OC)c1cc(Nc2ccc(N3CCN(C)CC3)cc2)ncn1 [Example 46, 3-(2,3-Dimethoxy-phenyl)-1-ethyl-1-{6-[4-(4-methyl-piperazin-1-yl)-phenylamino]-pyrimidin-4-yl}-urea] | 67 to 100 | 27 to 100 | 12 to 100
COc1cc(NC(=O)N(C)c2cc(Nc3cccc(N4CCN(C)CC4)c3)ncn2)cc(OC)c1 [Example 48, 3-(3,5-Dimethoxy-phenyl)-1-methyl-1-{6-[3-(4-methyl-piperazin-1-yl)-phenylamino]-pyrimidin-4-yl}-urea] | 67 to 100 | 27 to 100 | 12 to 100
COc1cc(NC(=O)N(C)c2cc(Nc3ccccc3)ncn2)c(Cl)c(OC)c1 [Example 49, 3-(2-Chloro-3,5-dimethoxy-phenyl)-1-methyl-1-(6-phenylamino-pyrimidin-4-yl)-urea] | 67 to 100 | 27 to 100 | 12 to 100
COc1cc(NC(=O)N(C)c2cc(Nc3cccc(N4CCN(C)CC4)c3)ncn2)c(Cl)c(OC)c1 [Example 51, 3-(2-Chloro-3,5-dimethoxy-phenyl)-1-methyl-1-{6-[3-(4-methyl-piperazin-1-yl)-phenylamino]-pyrimidin-4-yl}-urea] | 67 to 100 | 27 to 100 | 12 to 100
COc1cc(NC(=O)N(C)c2cc(Nc3ccc(C(=O)N4CCN(C)CC4)cc3)ncn2)c(Cl)c(OC)c1 [Example 52, 3-(2-Chloro-3,5-dimethoxy-phenyl)-1-methyl-1-{6-[4-(4-methyl-piperazine-1-carbonyl)-phenylamino]-pyrimidin-4-yl}-urea] | 67 to 100 | 27 to 100 | 12 to 100
CCN(CC)CCOc1ccc(Nc2cc(N(C)C(=O)Nc3cc(OC)cc(OC)c3Cl)ncn2)cc1 [Example 53, 3-(2-Chloro-3,5-dimethoxy-Phenyl)-1-{6-[4-(2-diethylamino-ethoxy)-phenylamino]-pyrimidin-4-yl}-1-methyl-urea] | 67 to 100 | 27 to 100 | 12 to 100
